Measurements published in patent US12343332B2, “Treatment of a bacterial vaginal infection” (Adamed Pharma S.A., priority 2017, dated 2025).
Values after ≈ are worked out from the molar mass of the structure shown. “Also recorded” adds a separate entry of the source. Where two headings read alike, the source gives them in different places.

Columns and labels:
Format in all cases: cell-based
[1] = tested on: Atopobium vaginae ATCC BAA 55; assay: MIC, macro dilution method for bacteria in a solid medium; conditions: for MIC: Fannyhessea vaginae, BAA55, 168 h, read-out: MIC value; for antibacterial activity (in words): against Atopobium vaginae
Experimental: (§1) Strains used in the study were Gardnerella vaginalis ATCC 14018, Atopobium vaginae ATCC BAA 55, Candida albicans ATCC 90028, and Candida [NT] 2001. […] To perform the assay, a pure, 48-hour strain reference culture was used, from which a bacterial suspension with a density of 1.0 McFarland in sterile saline was prepared. The suspension was plated onto Schaedler agar medium supplemented with 5% sheep blood (Becton Dickinson) and a test compound at the appropriate concentration. After incubation, the value MIC was read. Colony growth on the plate indicated no activity of the test compound at tested concentration. As the MIC value, the last lowest concentration as taken, at which there was no microbial growth. [table]

[2] = tested on: Gardnerella vaginalis ATCC 14018; assay: as above; conditions: for MIC: Gardnerella vaginalis, ATCC14018, 72 h, read-out: MIC value; for antibacterial activity (in words): against Gardnerella vaginalis
Experimental: as §1

[3] = tested on: Candida albicans ATCC 90028; assay: MIC, macro dilution method for yeast-like fungi in a liquid medium; conditions: for MIC: read-out: MIC value
Experimental: (§2) Strains used in the study were Gardnerella vaginalis ATCC 14018, Atopobium vaginae ATCC BAA 55, Candida albicans ATCC 90028, and Candida [NT] 2001. […] Liquid medium RPMI 1640 (Sigma-Aldrich) was used for fungi of the species Candida albicans ATCC 90028, and Candida [NT] 2001, in which 15 serial dilution were prepared in a range 500 μg/mL-0.03 μg/mL. From a pure 24-hour culture on Sabouraud solid medium, a fungal suspension having density of 0.5 McFarland in sterile saline. Next, the suspension was diluted, and was introduced into the RPMI 1640 medium yielding final concentrations of fungi 10^5 CFU/mL. Incubation was carried out for 24 hours in aerobic conditions in 37° C. Colony growth on the plate indicated no activity of the test compound at tested concentration. As the MIC value, the last lowest concentration as taken, at which there was no microbial growth

[4] = tested on: Candida glabrata ATCC 2001; assay: as above; conditions: for MIC: Nakaseomyces glabratus, read-out: MIC value
Experimental: as §2

[5] = tested on: Atopobium vaginae ATCC BAA 55; assay: Synergistic action at 2-fold lower concentrations than MIC, solid medium; conditions: for Synergy with Metronidazole / Synergy with Nystatin: Atopobium vaginae ATCC BAA 55, Furazidin 0.03 mg/L, Nitrofurantoin 0.98 mg/L, Nifuratel 1.95 mg/L; for Synergy with Metronidazole: Metronidazole 0.5 mg/L; for Synergy with Nystatin: Nystatin 250 mg/L; for synergistic effects with metronidazole (in words): against Atopobium vaginae
Experimental: (§3) To perform the assay, a pure, 48-hour strain reference culture was used, from which a bacterial suspension with a density of 1.0 McFarland in sterile saline was prepared. The suspension was plated onto Schaedler agar medium supplemented with 5% sheep blood (Becton Dickinson) and a test compound at the appropriate concentration. After incubation, the value MIC was read. Colony growth on the plate indicated no activity of the test compound at tested concentration. As the MIC value, the last lowest concentration as taken, at which there was no microbial growth. […] Lack of bacterial growth on the plate was interpreted as a synergic action. [table]

[6] = tested on: Gardnerella vaginalis ATCC 14018; assay: as above; conditions: for Synergy with Metronidazole / Synergy with Nystatin: Gardnerella vaginalis ATCC 14018, Furazidin 0.25 mg/L, Nitrofurantoin 0.5 mg/L, Nifuratel 0.98 mg/L; for Synergy with Metronidazole: Metronidazole 125 mg/L; for Synergy with Nystatin: Nystatin 250 mg/L; for synergistic effects with metronidazole (in words): against Gardnerella vaginalis
Experimental: as §3

[7] = tested on: Candida albicans ATCC 90028; assay: Synergistic action at 2-fold lower concentrations than MIC, liquid medium; conditions: for Synergy with Metronidazole / Synergy with Nystatin: Candida albicans ATCC 90028, each nitrofuran 250 mg/L; for Synergy with Metronidazole: Metronidazole 250 mg/L; for Synergy with Nystatin: Nystatin 0.98 mg/L
Experimental: (§4) Liquid medium RPMI 1640 (Sigma-Aldrich) was used for fungi of the species Candida albicans ATCC 90028, and Candida [NT] 2001, in which 15 serial dilution were prepared in a range 500 μg/mL-0.03 μg/mL. From a pure 24-hour culture on Sabouraud solid medium, a fungal suspension having density of 0.5 McFarland in sterile saline. Next, the suspension was diluted, and was introduced into the RPMI 1640 medium yielding final concentrations of fungi 10^5 CFU/mL. Incubation was carried out for 24 hours in aerobic conditions in 37° C. Colony growth on the plate indicated no activity of the test compound at tested concentration. As the MIC value, the last lowest concentration as taken, at which there was no microbial growth […] Lack of fungal growth on the plate was interpreted as a synergic action.

[8] = tested on: Candida glabrata ATCC 2001; assay: as above; conditions: for Synergy with Metronidazole / Synergy with Nystatin: Candida glabrata ATCC 2001, each nitrofuran 250 mg/L; for Synergy with Metronidazole: Metronidazole 125 mg/L; for Synergy with Nystatin: Nystatin 0.98 mg/L
Experimental: as §4

[9] = Atopobium vaginae ATCC BAA 55, Schaedler agar, anaerobic, 37° C., 7 days
[10] = Gardnerella vaginalis ATCC 14018, Schaedler agar, microaerophilic, 37° C., 72 hours
[11] = Candida albicans ATCC 90028, RPMI 1640, 24 hours, aerobic, 37° C.
[12] = Candida glabrata ATCC 2001, RPMI 1640, 24 hours, aerobic, 37° C.
[13] = ATCC90028, Candida albicans ATCC 90028, RPMI 1640, 24 hours, aerobic, 37° C.
[14] = ATCC2001, Candida glabrata ATCC 2001, RPMI 1640, 24 hours, aerobic, 37° C.

MIC value [1, 9]	MIC value [2, 10]	MIC [1, 9]	MIC [2, 10]	MIC [3, 13]	MIC [4, 14]	SMILES	antibacterial activity (in words) [1]	antibacterial activity (in words) [2]	Synergy with Metronidazole [5]	Synergy with Nystatin [5]	Synergy with Metronidazole [6]	Synergy with Nystatin [6]	Synergy with Metronidazole [7]	Synergy with Nystatin [7]	Synergy with Metronidazole [8]	Synergy with Nystatin [8]	MIC value [3, 11]	MIC value [4, 12]	synergistic effects with metronidazole (in words) [5]	synergistic effects with metronidazole (in words) [6]	also measured
						CSCC1CN(/N=C/c2ccc([N+](=O)[O-])o2)C(=O)O1 (stereo not shown) [Nifuratel]	antibacterial activity	antibacterial activity	−	+	−	+	+	−	+	−					MIC [1]: 3.9 µg/mL (≈ 13.7 µM); MIC [2]: 1.95 µg/mL (≈ 6.84 µM); MIC ([3]; Candida albicans, ATCC90028, 24 h): > 500 µg/mL; MIC ([4]; ATCC2001, 24 h): 500 µg/mL (≈ 1750 µM)
<0.03 µg/mL	0.49 µg/mL (≈ 1.85 µM)	< 0.03 µg/mL	< 0.49 µg/mL	500 µg/mL (≈ 1890 µM)	500 µg/mL (≈ 1890 µM)	O=C1CN(/N=C/C=C/c2ccc([N+](=O)[O-])o2)C(=O)N1 [Furazidin]	highest antibacterial activity in the group of nitrofuran derivatives	highest antibacterial activity in the group of nitrofuran derivatives	+	+	+	+	+	−	+	+			synergy; also recorded: synergistic effects	synergy; also recorded: synergistic effects	synergistic effects with nystatin (in words) ([5]; on Atopobium vaginae): synergistic effect; synergistic effects with nystatin (in words) ([6]; on Gardnerella vaginalis): synergistic effect; synergistic effects with metronidazole (in words) ([7]; against Candida albicans): synergy; synergistic effects with metronidazole (in words) ([8]; against Candida glabrata): synergy; synergistic effects with nystatin (in words) ([8]; against Candida glabrata): synergistic effects
		0.98 µg/mL (≈ 5.73 µM)	250 µg/mL (≈ 1460 µM)	500 µg/mL (≈ 2920 µM)	250 µg/mL (≈ 1460 µM)	Cc1ncc([N+](=O)[O-])n1CCO [Metronidazol, Metronidazole]	antibacterial activity	antibacterial activity													
<0.03 µg/mL	1.95 µg/mL (≈ 4.59 µM)	< 0.03 µg/mL	< 1.95 µg/mL			CCC[C@@H]1C[C@@H](C(=O)N[C@@H]([C@H]2O[C@H](SC)[C@H](O)[C@@H](O)[C@H]2O)[C@H](C)Cl)N(C)C1 [Clindamycin]															
1.95 µg/mL (≈ 8.19 µM)	0.98 µg/mL (≈ 4.11 µM)					O=C1CN(/N=C/c2ccc([N+](=O)[O-])o2)C(=O)N1 [Nitrofurantion, Nitrofurantoin]	antibacterial activity	antibacterial activity	+	+	+	+	+	−	+	−	500 µg/mL (≈ 2100 µM)	500 µg/mL (≈ 2100 µM)	synergistic effects	synergistic effects	

SMILES	MIC value [1, 9]	MIC value [2, 10]	MIC [1, 9]	MIC [2, 10]	MIC [3, 13]	MIC [4, 14]	antibacterial activity (in words) [1]	antibacterial activity (in words) [2]	Synergy with Metronidazole [5]	Synergy with Nystatin [5]	Synergy with Metronidazole [6]	Synergy with Nystatin [6]	Synergy with Metronidazole [7]	Synergy with Nystatin [7]	Synergy with Metronidazole [8]	Synergy with Nystatin [8]	MIC value [3, 11]	MIC value [4, 12]	synergistic effects with metronidazole (in words) [5]	synergistic effects with metronidazole (in words) [6]	also measured
C[C@@H]1[C@H](O)[C@@H](C)/C=C/C=C/CC/C=C/C=C/C=C/C=C/C(O[C@H]2O[C@H](C)[C@@H](O)[C@H](N)[C@@H]2O)CC2O[C@](O)(CC(O)C(O)CCC(O)CC(O)CC(O)CC(=O)O[C@H]1C)CC(O)C2C(=O)O (stereo partly shown) [Nystatin]	500 µg/mL (≈ 540 µM)	500 µg/mL (≈ 540 µM)															1.98 µg/mL (≈ 2.14 µM)	1.98 µg/mL (≈ 2.14 µM)			
